Experimental data taken from paper PMC2532997, “Methoxylation enhances stilbene bioactivity in Caenorhabditis elegans” (BMC Pharmacology, 2008).

How the values were obtained:
[1] = system: C. elegans fem-1(hc17) sterile adults; assay: Adult survival assay of sterile fem-1(hc17) adults on compound-supplemented medium; format: in vivo, Caenorhabditis elegans
Protocol: For survival assays, young adult (day 0) animals were transferred onto fresh medium supplemented with the test compound at a range of concentrations. The compounds were tested at indicated concentrations in the growth medium (below). C. elegans nematodes are surrounded by a thick collagenous cuticle and are therefore relatively impermeable to environmental compounds. […] Survival was scored every 2–3 days as the ability to move in response to a gentle mechanical stimulus. During the first week of adulthood, C. elegans hermaphrodites are reproductively competent and normally produce 200–300 progeny. Since progeny production would complicate survival analysis, these experiments were performed using fem-1(hc17) animals that are sterile due to a spermatogenesis defect.
Resveratrol and picetannol were obtained from commercial sources (Sigma-Aldrich, Inc. and Calbiochem-Novobiochem Corp., respectively). The methoxylated stilbenes pinostilbene, desoxyrhapontigenin, 3-hydroxy-5,4'-dimethoxystilbene and pterostilbene (Figure 1) were synthesized by partial methylation of trans-resveratrol as previously reported. The methoxylated stilbenes were purified by preparative layer chromatography (Merck Silica gel 60 F254; EMD Chemicals Inc., Gibbstown, NJ) using the developing solvent chloroform:methanol (96:4) with 1% formic acid. […] These stilbenes were identified from their ^1H-NMR spectra (Bruker 400 MHz; Bruker, Billerica, MA). All stilbenes were dissolved in ethanol to 25 mg/mL before use. 5-Fluoro-deoxyuracil (Sigma Chemical Co.) was dissolved to 1 mg/mL in sterile water and stored frozen at -20°C until use. For treating C. elegans adults, each compound was added in a 200 μL volume to the top of a 1-day old bacterial lawn grown on NGM medium to final concentrations as indicated. Compounds were allowed 2 hours to diffuse through the agar medium before animals were added.
For survival analyses, synchronized populations of sterile fem-1(hc17) hermaphrodites were obtained by first transferring several fertile hermaphrodites to a fresh plate at 25°C and allowing them to lay eggs for several hours. The parent hermaphrodites were removed and embryos were allowed to develop into sterile adults at 25°C, which takes approximately 48 hours. On the first day of adulthood, referred to as day 0, sterile adults were transferred onto fresh media supplemented with stilbenes at indicated concentrations, and maintained at 25°C. Adult survival was scored every 2–3 days by the animal's ability to move in response to a gentle mechanical stimulus. Statistical analysis of survival was performed using the JMP software package.

[2] = system: gld-1(q485) germline tumors; assay: Germline tumor growth assay (DAPI-stained tumor area); format: in vivo, Caenorhabditis elegans; details: for effect on tumor size (in words): 100 μM dose
Protocol: To assess the effects of methoxylation on antitumor activity in vivo, tumor area was measured in gld-1(q485) adults treated for four days with either resveratrol trimethylether, desoxyrhapontigenin or pterostilbene, which are methoxylated and toxic to adults, or resveratrol, which is hydroxylated and nontoxic. As controls, germline tumor area was also measured in animals treated with carrier only (ethanol) or with 5-fluoro-2'-deoxyuradine (FUDR), a thymidylate synthetase inhibitor that blocks cell proliferation. […] After four days of treatment, animals were collected and germline tumors were visualized by DAPI staining to visualize germcell nuclei. Because the level of DAPI staining was not quantitative between animals, we DAPI signal intensity was not used as a measure of tumor size. Rather, tumor size was directly measured as the area of the DAPI-stained gonad.
Resveratrol and picetannol were obtained from commercial sources (Sigma-Aldrich, Inc. and Calbiochem-Novobiochem Corp., respectively). The methoxylated stilbenes pinostilbene, desoxyrhapontigenin, 3-hydroxy-5,4'-dimethoxystilbene and pterostilbene (Figure 1) were synthesized by partial methylation of trans-resveratrol as previously reported. The methoxylated stilbenes were purified by preparative layer chromatography (Merck Silica gel 60 F254; EMD Chemicals Inc., Gibbstown, NJ) using the developing solvent chloroform:methanol (96:4) with 1% formic acid. The Rf values for pterostilbene, 3-hydroxy-5,4'-dimethoxystilbene, pinostilbene and desoxyrhapontigenin are 0.61, 0.57, 0.28, and 0.20, respectively. These stilbenes were identified from their ^1H-NMR spectra (Bruker 400 MHz; Bruker, Billerica, MA). All stilbenes were dissolved in ethanol to 25 mg/mL before use. 5-Fluoro-deoxyuracil (Sigma Chemical Co.) was dissolved to 1 mg/mL in sterile water and stored frozen at -20°C until use. For treating C. elegans adults, each compound was added in a 200 μL volume to the top of a 1-day old bacterial lawn grown on NGM medium to final concentrations as indicated. Compounds were allowed 2 hours to diffuse through the agar medium before animals were added.
The gld-1(q485) mutation causes a defect in oocyte development that results in growth of germline tumors that fill the somatic gonad, eventually leading to the animal's death. To examine the effects of the stilbenes on gld-1(q485) germline tumors, day 0 adults were placed on stilbene-containing medium in the presence of OP50 bacteria as food source. After 4 days at 20°C, animals were fixed in methanol and germcell nuclei were visualized by staining with DAPI. Images were collected with the entire animal in view using the 4× objective on a Nikon E800 microscope equipped with a Hamamatsu Orca ER CCD camera using OpenLab imaging software. NIH Image J software was used to measure germline tumor growth in treated and untreated animals. Tumor area was measured by outlining the entire DAPI-stained tumor.

[3] = system: cytochrome P450 2E1; set-up: method as in PMID 16684708; details: cited from earlier work
[4] = Trial 1, 100 μM in medium, from day 0 of adulthood, 25°C, control 12.16 days
[5] = Trial 1, 100 μM, treated vs control mean lifespan
[6] = Trial 2, 20 μM, control 11.05 days
[7] = Trial 2, 40 μM, control 11.05 days
[8] = Trial 6, 20 μM, control 15.32 days
[9] = Trial 6, 40 μM, control 15.32 days
[10] = Trial 6, 100 μM, control 15.32 days
[11] = Trial 3, 100 μM, control 15.37 days
[12] = Trial 3, 200 μM, control 15.37 days
[13] = Trial 4, 20 μM, control 11.26 days
[14] = Trial 4, 40 μM, control 11.26 days
[15] = Trial 4, 100 μM, control 11.26 days

Row | Structure (SMILES) | Mean lifespan, Treated [1, 4] | Relative survival [1, 5] | Relative survival ([1]; Trial 2, 20 μM) | Mean lifespan, Treated [1, 6] | Relative survival ([1]; Trial 2, 40 μM) | Mean lifespan, Treated [1, 7] | Relative survival ([1]; Trial 6, 20 μM) | Mean lifespan, Treated [1, 8] | Relative survival ([1]; Trial 6, 40 μM) | Mean lifespan, Treated [1, 9] | Relative survival ([1]; Trial 6, 100 μM) | Mean lifespan, Treated [1, 10] | effect on tumor size (in words) ([2]; four days treatment) | Relative survival ([1]; Trial 3, 100 μM) | Mean lifespan, Treated [1, 11] | Relative survival ([1]; Trial 3, 200 μM) | Mean lifespan, Treated [1, 12] | Relative survival ([1]; Trial 4, 20 μM) | Mean lifespan, Treated [1, 13] | Relative survival ([1]; Trial 4, 40 μM) | further results
1 | COc1ccc(C=Cc2cc(O)cc(OC)c2)cc1 [3-OH-5,4'-dimethoxystilbene, 3-hydroxy-5,4'-dimethoxystilbene] | 6.34 days | 52% | 100% | 11.05 days | 95% | 10.52 days | 68% | 10.38 days | 50% | 7.68 days | 43% | 6.56 days | – | – | – | – | – | – | – | – | –
2 | COc1ccc(/C=C/c2cc(O)cc(O)c2)cc1 [Desoxyrhapontigenin, desoxyrhapontigenin] | 10.64 days | 88% | – | – | – | – | 93% | 14.18 days | 100% | 15.31 days | 89% | 13.63 days | consistent reductions in tumor size | 74% | 11.31 days | 76% | 11.61 days | 91% | 10.2 days | 92% | Mean lifespan, Treated [1, 14]: 10.38 days; Relative survival ([1]; Trial 4, 100 μM): 84%; Mean lifespan, Treated [1, 15]: 9.44 days; inhibition of catalytic activity of cytochrome P450 2E1 (in words) [3]: not inhibitory
3 | COc1cc(O)cc(/C=C/c2ccc(O)cc2)c1 [Pinostilbene, pinostilbene] | 13.6 days | 112% | 91% | 10.04 days | 104% | 11.53 days | 93% | 14.24 days | 113% | 17.33 days | 106% | 16.24 days | – | 110% | 16.9 days | 99% | 15.23 days | – | – | – | inhibition of catalytic activity of cytochrome P450 2E1 (in words) [3]: moderately inhibited
4 | COc1cc(/C=C/c2ccc(O)cc2)cc(OC)c1 [Pterostilbene, pterostilbene] | 9.55 days | 79% | – | – | – | – | 90% | 13.72 days | 94% | 14.41 days | 72% | 10.98 days | modestly reduced tumor size | – | – | – | – | 93% | 10.43 days | 89% | Mean lifespan, Treated [1, 14]: 10 days; Relative survival ([1]; Trial 4, 100 μM): 72%; Mean lifespan, Treated [1, 15]: 8.07 days
5 | Oc1cc(O)cc(/C=C/c2ccc(O)c(O)c2)c1 [Piceatannol, piceatannol, reference compound] | – | – | 106% | 11.72 days | 105% | 11.58 days | 89% | 13.71 days | 102% | 15.63 days | 108% | 16.6 days | – | 116% | 17.78 days | 114% | 17.5 days | – | – | – | –
6 | Oc1ccc(/C=C/c2cc(O)cc(O)c2)cc1 [Resveratrol, resveratrol, reference compound] | 12.18 days | 100% | 107% | 11.85 days | 95% | 10.53 days | 96% | 14.65 days | 106% | 16.17 days | 115% | 17.55 days | – | 108% | 16.64 days | 111% | 17 days | – | – | – | effect on germline tumor size vs untreated ([2]; 100 μM in growth medium, four days treatment, FUDR values are single trials): -4%; effect on tumor area (in words) ([2]; 200 and 400 μM dose, three trials): not associated with statistically significant reductions in tumor area
